# Experimental data reported in patent publication US10344054B2, “Angiotensin-1-receptor antagonists” (Ferring B.V., priority 2016, dated 2019).
# Starred links: 1 amine or outer side, 2 acyl side, 3 side chain; linkers in the order of their positions; H or OH if unused. Non-standard residues stand in square brackets, D forms with d. Residues, ends and D or L forms follow the SMILES beside them. X1 = O=C(CN(C[C@H](O)[C@@H](O)[C@H](O)[C@H](O)CO)[*:1])[*:2]; dPhe(2-Cl) = N[C@H](Cc1ccccc1Cl)C(=O)O; Chg = N[C@H](C(=O)O)C1CCCCC1
# Assays:
# hAT1R [1] = target: T1, hAT1R (Homo sapiens, UniProt P30556); assay: FLIPR calcium flux assay, Part II: antagonist activity against Angiotensin II; format: cell-based; conditions: for Emax: read-out: hAT1R Antagonist Efficacy Antag (%) Ave; for IC50: read-out: hAT1R Antagonist IC50 Ave; on hAT1R Antagonist Efficacy Antag (%) Ave: Angiotensin II 10 nM final concentration
# T1 sequence (P30556 1-359): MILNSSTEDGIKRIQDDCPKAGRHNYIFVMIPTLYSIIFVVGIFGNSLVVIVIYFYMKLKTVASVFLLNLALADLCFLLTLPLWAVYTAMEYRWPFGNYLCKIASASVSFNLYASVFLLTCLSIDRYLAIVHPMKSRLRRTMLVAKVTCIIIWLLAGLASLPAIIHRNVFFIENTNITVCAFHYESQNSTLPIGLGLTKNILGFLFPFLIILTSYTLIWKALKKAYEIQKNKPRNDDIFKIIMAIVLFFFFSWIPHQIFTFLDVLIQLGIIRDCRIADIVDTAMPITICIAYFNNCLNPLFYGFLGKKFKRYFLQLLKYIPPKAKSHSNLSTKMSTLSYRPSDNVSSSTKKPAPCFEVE
# Experimental: (§1) AT1 receptor (AT1R) agonists increase intracellular flux of calcium ions. AT1R antagonists can reduce the agonist effect. […] Compounds were first tested for agonism (Part I) followed by addition of the AT1R agonist angiotensin II to test for antagonist activity (Part II). This assay used a stable hAT1R expressing cell line (ChanTest hAT1R; ChanTest Corp A628). Intracellular flux of calcium in response to agonist was measured through real-time measurement of fluorescence induced through the interaction of Ca2+ (released from intracellular stores) and calcium-sensitive dye. In Part I, cells were exposed to varying concentrations of test compounds and immediately measured for agonist activity (EC50 and Efficacy).
# (§2) ChanTest hAT1R stable cells were maintained in Ham's F12 containing 10% (v/v) heat inactivated fetal bovine serum (FBS-HI), 4 mM Glutamax, 1% NEAA, 50 ng/mL plasmocin, 400 μg/mL G418 at 37° C. under 5% CO2 in a humidified atmosphere.
# (§3) For FLIPR assay, ChanTest hAT1R cells were trypsinized with 6 ml of Trypsin EDTA solution and harvested in phenol-red free DMEM containing 10% FBS-HI, 4 mM Glutamax and counted, spun down and resuspended in the same medium. The cell suspension was added to the wells of 384-well black PDL clear bottom plates at 2.5×10^4 cells/well, 20 μl/well.
# (§4) Preparation of Loading Buffer:
# (§5) • Loading Buffer: 1 vial of Calcium 5 Bulk Assay reagent was dissolved in 100 ml of 1× HBSS-20 mM Hepes buffer. • Probenecid was resuspended at 1 M in 1 M NaOH. Once the probenecid had gone into solution, an equal volume of H2O was added to make a solution of 500 mM followed by a 1:100 dilution in the Loading Buffer for a working concentration of 5 mM. The pH was adjusted to 7.4 using 1 M NaOH. Loading the Cells with Loading Buffer • Cell plates were removed from the incubator and 25 μl of Loading Buffer containing probenecid (5 mM) added to each well. • Plates were incubated for 1 hour at 37° C. under 5% CO2 in a humidified atmosphere. […] The remaining steps of the assay were carried forward by FLIPR Tetra. A baseline reading was taken at 1-second (s) intervals for 10 s followed by the addition of 5 μl of 10× compounds. The compound-induced fluorescence signal was then measured for 3 minutes with readings taken at 1-s intervals. • The cell plate was removed from the FLIPR and set aside for an additional 17 minutes. • The cell plate was then transferred back to the FLIPR Tetra, along with the 384 well Angiotensin II agonist dilution plate. A baseline reading was taken at 1-second (s) intervals for 10 seconds, followed by the addition of 5.5 μl of 10× Angiotensin II agonist. The agonist-induced fluorescence signal was then measured for 3 minutes with readings taken at 1-s intervals. • Overall, each well in the FLIPR assay was composed of the following components in a total volume of 55.5 μl:
# (§6) Time-course results from the FLIPR Calcium 5 assay were expressed as relative fluorescence light units (RFU). The maximum minus minimum values (Max−Min) were used to quantify the strength of the signal. Mean RFU were calculated from replicate values and plotted on the y-axis versus compound concentration on a logarithmic scale on the x-axis, and a single-binding site, four parameter concentration response model: (MIN+((MAX−MIN)/(1+((EC50/x)^Hill)))), was used to perform non-linear regression analysis, generating concentration response curves. Reported parameters included agonist potency EC50 (the concentration causing half-maximal agonist response), antagonist potency IC50 (the concentration causing half-maximal inhibition of the agonist response for antagonist compounds) and efficacy (% MPE: percent of the maximal possible effect).
# hAT1R [2] = target: T1, hAT1R; assay: FLIPR calcium flux assay, Part I: agonist activity; format: cell-based; conditions: ChanTest hAT1R stable cells; % MPE, percent of the maximal possible effect; read-out: hAT1R Agonist Efficacy Agonist (%) Ave
# Experimental: as §1, §2, §3, §4, §5, §6
SMILES,Emax (hAT1R [1]) [%],IC50 (hAT1R [1]) [nM],Emax (hAT1R [2]) [%]
"CNCC(=O)N[C@@H](CCCNC(=N)N)C(=O)N[C@H](C(=O)N[C@@H](Cc1ccc(O)cc1)C(=O)N[C@H](C(=O)N[C@@H](Cc1c[nH]cn1)C(=O)N1CCC[C@H]1C(=O)N[C@H](Cc1ccccc1C)C(=O)O)C1CCCCC1)C(C)C [Compound 27, Sar-Arg-Val-Tyr-Chg-His-Pro-(D-Phe(2-Me))—OH] (HELM PEPTIDE1{[Sar].R.V.Y.[O=C([C@@H](N[*:1])C1CCCCC1)[*:2]].H.P.[Cc1ccccc1C[C@@H](N[*:1])C(=O)O]}$$$$V2.0)",100,14.5,8
"CNCC(=O)N[C@@H](CCCNC(=N)N)C(=O)N[C@H](C(=O)N[C@@H](Cc1ccc(O)c(Cl)c1)C(=O)N[C@H](C(=O)N[C@@H](Cc1c[nH]cn1)C(=O)N1CCC[C@H]1C(=O)N[C@H](Cc1ccccc1Cl)C(=O)O)C(C)C)C(C)C [Compound 28, Sar-Arg-Val-Tyr(3-Cl)-Val-His-Pro-(D-Phe(2-Cl))—OH] (HELM PEPTIDE1{[Sar].R.V.[O=C([C@H](Cc1ccc(O)c(Cl)c1)N[*:1])[*:2]].V.H.P.[O=C(O)[C@@H](Cc1ccccc1Cl)N[*:1]]}$$$$V2.0)",99,12.2,5
"CNCC(=O)N[C@@H](CCCNC(=N)N)C(=O)N[C@H](C(=O)N[C@@H](Cc1cccc(O)c1)C(=O)N[C@H](C(=O)N[C@@H](Cc1c[nH]cn1)C(=O)N1CCC[C@H]1C(=O)N[C@H](Cc1ccccc1Cl)C(=O)O)C(C)C)C(C)C [Compound 30, Sar-Arg-Val-(m-Tyr)-Val-His-Pro-(D-Phe(2-Cl))—OH] (HELM PEPTIDE1{[Sar].R.V.[O=C([C@H](Cc1cccc(O)c1)N[*:1])[*:2]].V.H.P.[O=C(O)[C@@H](Cc1ccccc1Cl)N[*:1]]}$$$$V2.0)",100,20.5,12
"CNCC(=O)N[C@@H](CCCNC(=N)N)C(=O)N[C@H](C(=O)N[C@@H](Cc1ccc(N)cc1)C(=O)N[C@H](C(=O)N[C@@H](Cc1c[nH]cn1)C(=O)N1CCC[C@H]1C(=O)N[C@H](Cc1ccccc1Cl)C(=O)O)C(C)C)C(C)C [Compound 33, Sar-Arg-Val-Aph-Val-His-Pro-(D-Phe(2-Cl))—OH] (HELM PEPTIDE1{[Sar].R.V.[Nc1ccc(C[C@H](N[*:1])C(=O)[*:2])cc1].V.H.P.[O=C(O)[C@@H](Cc1ccccc1Cl)N[*:1]]}$$$$V2.0)",100,17.1,3
"CNCC(=O)N[C@@H](CCCNC(=N)N)C(=O)N[C@H](C(=O)N[C@@H](Cc1ccc(O)cc1)C(=O)N[C@H](C(=O)N[C@@H](Cc1c[nH]cn1)C(=O)N1CCC[C@H]1C(=O)N[C@H](Cc1cccc2ccccc12)C(=O)O)C1CCCCC1)C(C)C [Compound 34, Sar-Arg-Val-Tyr-Chg-His-Pro-(D-1Nal)-OH] (HELM PEPTIDE1{[Sar].R.V.Y.[O=C([C@@H](N[*:1])C1CCCCC1)[*:2]].H.P.[O=C(O)[C@@H](Cc1cccc2ccccc12)N[*:1]]}$$$$V2.0)",100,15.5,5
"CNCC(=O)N[C@@H](CCCNC(=N)N)C(=O)N[C@H](C(=O)N[C@@H](Cc1ccc(O)cc1)C(=O)N[C@H](C(=O)N[C@@H](Cc1c[nH]cn1)C(=O)N1CCC[C@H]1C(=O)N[C@H](Cc1ccccc1-c1ccccc1)C(=O)O)C1CCCCC1)C(C)C [Compound 36, Sar-Arg-Val-Tyr-Chg-His-Pro-(D-Phe(2-Ph))—OH] (HELM PEPTIDE1{[Sar].R.V.Y.[O=C([C@@H](N[*:1])C1CCCCC1)[*:2]].H.P.[O=C(O)[C@@H](Cc1ccccc1-c1ccccc1)N[*:1]]}$$$$V2.0)",100,26,13
"CC(C)[C@H](NC(=O)[C@H](CCCNC(=N)N)NC(=O)CNC[C@H](O)[C@@H](O)[C@H](O)[C@H](O)CO)C(=O)N[C@@H](Cc1ccc(O)cc1)C(=O)N[C@H](C(=O)N[C@@H](Cc1c[nH]cn1)C(=O)N1CCC[C@H]1C(=O)N[C@H](Cc1cccc2ccccc12)C(=O)O)C(C)C [Compound 37, Glac-Arg-Val-Tyr-Val-His-Pro-(D-1Nal)-OH] (HELM PEPTIDE1{[O=C(CNC[C@H](O)[C@@H](O)[C@H](O)[C@H](O)CO)[*:2]].R.V.Y.V.H.P.[O=C(O)[C@@H](Cc1cccc2ccccc12)N[*:1]]}$$$$V2.0)",99,19.5,7

# Results, then the compound that gave them:
Emax (hAT1R [1]) [%],IC50 (hAT1R [1]) [nM],Emax (hAT1R [2]) [%],SMILES
99,19.5,6,"CC(C)[C@H](NC(=O)[C@H](CCCNC(=N)N)NC(=O)CNC[C@H](O)[C@@H](O)[C@H](O)[C@H](O)CO)C(=O)N[C@@H](Cc1ccc(O)cc1)C(=O)N[C@H](C(=O)N[C@@H](Cc1c[nH]cn1)C(=O)N1CCC[C@H]1C(=O)N[C@H](Cc1ccccc1Cl)C(=O)O)C(C)C [Compound 29, Glac-Arg-Val-Tyr-Val-His-Pro-(D-Phe(2-Cl))—OH] (HELM PEPTIDE1{[O=C(CNC[C@H](O)[C@@H](O)[C@H](O)[C@H](O)CO)[*:2]].R.V.Y.V.H.P.[O=C(O)[C@@H](Cc1ccccc1Cl)N[*:1]]}$$$$V2.0)"
99,15.7,6,"CC(C)[C@H](NC(=O)[C@H](CCCNC(=N)N)NC(=O)CNC[C@H](O)[C@@H](O)[C@H](O)[C@H](O)CO)C(=O)N[C@@H](Cc1ccc(O)cc1)C(=O)N[C@H](C(=O)N[C@@H](Cc1c[nH]cn1)C(=O)N1CCC[C@H]1C(=O)N[C@H](Cc1ccccc1Cl)C(=O)O)C1CCCCC1 [Compound 31, Glac-Arg-Val-Tyr-Chg-His-Pro-(D-Phe(2-Cl))—OH] (H-[X1]RVY[Chg]HP[dPhe(2-Cl)]-OH)"
99,24.1,5,"CNCC(=O)N[C@@H](CCCNC(=N)N)C(=O)N[C@H](C(=O)N[C@@H](Cc1ccc(O)c(O)c1)C(=O)N[C@H](C(=O)N[C@@H](Cc1c[nH]cn1)C(=O)N1CCC[C@H]1C(=O)N[C@H](Cc1ccccc1Cl)C(=O)O)C(C)C)C(C)C [Compound 32, Sar-Arg-Val-DOPA-Val-His-Pro-(D-Phe(2-Cl))—OH] (HELM PEPTIDE1{[Sar].R.V.[O=C([C@H](Cc1ccc(O)c(O)c1)N[*:1])[*:2]].V.H.P.[O=C(O)[C@@H](Cc1ccccc1Cl)N[*:1]]}$$$$V2.0)"
100,14.3,6,"CNCC(=O)N[C@@H](CCCNC(=N)N)C(=O)N[C@H](C(=O)N[C@@H](Cc1ccc(O)cc1)C(=O)N[C@H](C(=O)N[C@@H](Cc1c[nH]cn1)C(=O)N1CCC[C@H]1C(=O)N[C@H](Cc1csc2ccccc12)C(=O)O)C1CCCCC1)C(C)C [Compound 35, Sar-Arg-Val-Tyr-Chg-His-Pro-(D-(3-benzothienyl)alanine)-OH] (HELM PEPTIDE1{[Sar].R.V.Y.[O=C([C@@H](N[*:1])C1CCCCC1)[*:2]].H.P.[O=C(O)[C@@H](Cc1csc2ccccc12)N[*:1]]}$$$$V2.0)"
